The text below walks through data of patent publication US20030104507A1, “Method for detection of ATP” (priority 2001, published 2003).

SMILES strings stand for the structures.

The assay relates to endogenous ATPase of L929 cell lysate. Nature of the assay: ATPase inhibition at 22° C. and 37° C. by buffered detergent solution with 1% DTAB. The note with it: up to five hours. The class given is biochemical. Here is the method: Cell lysate was prepared as described in Example 1. The ability of 1% DTAB to inhibit endogenous ATPase (i.e., ATPase present in a sample) was measured in a complete reagent composition over time at both 22° C. (room temperature) and 37° C. Three cell lysate samples were prepared. Sample 1 contained 4.0 ml L929 cell lysate plus 4.0 ml 25 mM Hepes, pH 7.5. Sample 2 contained 4.0 ml L929 cell lysate plus 4.0 ml buffered detergent solution (40 mM Citrate (pH 6.0), 110 mM MES (pH 6.0), 450 mM KPO4 (pH 6.0), 2.0 mM EDTA, 0.2% Mazu DF-204 (PPG Industries), 2.0 mM NaF, 1.0% DTAB and 2% THESIT—final pH of the buffered detergent solution adjusted to 6.0). Sample 3 contained 4.0 ml DMEM/F12 media (no serum) containing 0.1 μM ATP plus 4.0 ml 25 mM Hepes (pH 7.5). The samples were divided in half; half was incubated at 22° C., half was incubated at 37° C. After 10 minutes of incubation in their respective water baths to allow the solution at 37° C. to reach that temperature (this point is referred to as time=10 min.), 100 μl of each sample was transferred independently to a well of a 96-well luminometer plate in quadruplicate. To each 100 μl sample was added 20 μl of a solution containing luciferin (12.5 mM)/luciferase (200 μg/ml LucPpe2m146)/MgSO4 (50 mM) solution. The resulting relative light units were measured on a Dynex luminometer using 0.5 second reads. […]

For the molecule `CCCCCCCCCCCC[N+](C)(C)C.[Br-]` [DTAB, dodecyltrimethylammonium bromide], the “loss of ATP (inhibition of ATPase endogenous to the sample)” value runs as follows: (22° C.) “no loss of ATP”; (37° C.) “minimal loss”.
